Reference: ChEMBL document CHEMBL4725262, “Potent antiviral activity of novel multi-substituted 4-anilinoquin(az)olines” (Bioorg Med Chem Lett, 2020)
pEC50: −log10 of the molar value.

How the values were obtained:
[1] = tested on: dengue virus type 2; experiment: Antiviral activity against DENV2 New Guinea C strain infected in Huh7 cells after 48 hrs by renilla luciferase assay; assay type: functional, organism-based, Huh-7; conditions: for EC90: Huh-7, time 48 hrs
[2] = Cytotoxicity against human Huh-7 cells infected with DENV2 by alamar blue assay; assay type: cell-based
[3] = tested on: dengue virus type 2; experiment: Potency index, ratio of erlotinib EC50 to compound EC50 for antiviral activity against DENV2 New Guinea C strain infected in Huh7 cells after 48 hrs by renilla luciferase assay; assay type: functional, Huh-7
[4] = Selectivity index, ratio of CC50 for human Huh7 cells to EC50 for DENV2 New Guinea C; assay type: toxicity; conditions: read-out: Ratio CC50/EC50
[5] = Dengue virus, New Guinea C, Huh-7, 48 h

| Compound | pEC50 [1, 5] | CC50 [2] [µM] | Ratio EC50 [3] | pEC50 ([1]; huh-7) | EC90 ([1]; Dengue virus, New Guinea C) [µM] | selectivity ratio [4] |
| --- | --- | --- | --- | --- | --- | --- |
| COc1ccc2ncnc(Nc3cc(OC)c(OC)c(OC)c3)c2c1 | < 5.00 | > 10 | – | – | – | – |
| COc1cc(Nc2ncnc3ccc(Cl)cc23)cc(OC)c1OC | 6.00 | > 10 | >10 | – | – | – |
| Clc1ccc(-c2ccc(-c3nc(NCc4cccnc4)nc4ccccc34)s2)cc1 | 7.15 | – | – | – | – | – |
| CC(C)(C)Oc1cccc2nc(N)nc(N)c12 | 8.55 | – | – | – | – | – |
| COc1cc2ncnc(Nc3cc(OC)c(OC)c(OC)c3)c2cc1OC | 5.18 | > 10 | – | – | – | – |
| COc1cc2nccc(Nc3cc(OC)c(OC)c(OC)c3)c2cc1OC | < 5.00 | > 10 | – | – | – | – |
| COc1cc(Nc2ccnc3cc(Cl)ccc23)cc(OC)c1OC | < 5.00 | > 10 | – | – | – | – |
| COc1cc(-c2cnc3c(N4C[C@@H](C)O[C@@H](C)C4)snc3c2)ccc1N | 6.06 | – | – | – | – | – |
| COc1ccc(-c2cnc3[nH]cc(C#Cc4cccnc4)c3c2)cc1OC | 6.14 | – | – | – | – | – |
| COc1cc(Nc2ccnc3ccc(Br)cc23)cc(OC)c1OC | 7.10 | > 10 | >80 | 6.91 | – | – |
| COc1cc(Nc2ncnc3ccc(C(F)(F)F)cc23)cc(OC)c1OC | < 5.00 | > 10 | – | – | – | – |
| CCN(CC)c1ccc(Oc2ccc(-c3[nH]c4cccc(F)c4c(=O)c3C)cc2F)cc1 | 8.15 | – | – | – | – | – |
| COc1cc(N(C)c2ccnc3ccc(C(F)(F)F)cc23)cc(OC)c1OC | 5.00 | > 10 | – | – | – | – |
| COc1cc(Nc2ccnc3ccc(I)cc23)cc(OC)c1OC | 6.09 | > 10 | – | – | – | – |
| COc1cc(Nc2cc(C)nc3ccc(C(F)(F)F)cc23)cc(OC)c1OC | 6.04 | > 10 | – | – | – | – |
| COc1cc(Nc2ccnc3ccc(Cl)cc23)cc(OC)c1OC | 6.28 | > 10 | – | – | – | – |
| COc1cc(Nc2ccnc3cc(C#N)ccc23)cc(OC)c1OC | 5.48 | > 10 | – | – | – | – |
| COc1cc(Nc2ccnc3ccc(C#N)cc23)cc(OC)c1OC | 6.12 | > 10 | – | – | – | – |
| COc1ccc2c(Nc3cc(OC)c(OC)c(OC)c3)ccnc2c1 | < 5.00 | > 10 | – | – | – | – |
| COc1cc(Nc2ccnc3ccccc23)cc(OC)c1OC | 5.09 | > 10 | – | – | – | – |
| COc1ccc2nccc(Nc3cc(OC)c(OC)c(OC)c3)c2c1 | 6.12 | > 10 | 8 | – | – | – |
| COc1cc(Nc2ccnc3cc(I)ccc23)cc(OC)c1OC | 5.44 | > 10 | 2 | – | – | – |

| Compound | pEC50 [1, 5] | CC50 [2] [µM] | Ratio EC50 [3] | pEC50 ([1]; huh-7) | EC90 ([1]; Dengue virus, New Guinea C) [µM] | selectivity ratio [4] |
| --- | --- | --- | --- | --- | --- | --- |
| COc1cc(Nc2ncnc3ccccc23)cc(OC)c1OC | 5.55 | > 10 | 2 | – | – | – |
| COc1cc(Nc2ccnc3ccc(F)cc23)cc(OC)c1OC | 5.28 | > 10 | – | – | – | – |
| COc1cc(Nc2c(C#N)cnc3ccc(S(C)(=O)=O)cc23)cc(OC)c1OC | < 5.00 | > 10 | – | – | – | – |
| COc1cc(Nc2c(C#N)cnc3ccc(Br)cc23)cc(OC)c1OC | 7.09 | > 10 | >80 | – | 0.151 | – |
| COc1cc(Nc2ccnc3cc(C(F)(F)F)ccc23)cc(OC)c1OC | 5.17 | > 10 | – | – | – | – |
| COc1cc(Nc2ccnc3ccc(S(C)(=O)=O)cc23)cc(OC)c1OC | 6.08 | > 10 | – | – | – | – |
| COc1cc(Nc2c(C#N)cnc3cc(Cl)ccc23)cc(OC)c1OC | < 5.00 | > 10 | – | – | – | – |
| COc1cc(Nc2c(C#N)cnc3cc(Br)ccc23)cc(OC)c1OC | < 5.00 | > 10 | – | – | – | – |
| COc1cc(Nc2ncnc3ccc(F)cc23)cc(OC)c1OC | < 5.00 | > 10 | – | – | – | – |
| COc1ccc2c(Nc3cc(OC)c(OC)c(OC)c3)c(C#N)cnc2c1 | < 5.00 | > 10 | – | – | – | – |
| COc1cc(Nc2cc(C)nc3ccc(Br)cc23)cc(OC)c1OC | 6.55 | 2.5 | >20 | – | 0.53 | 10 |
| COc1cc(Nc2ncnc3ccc(S(C)(=O)=O)cc23)cc(OC)c1OC | < 5.00 | > 10 | – | – | – | – |
| COc1cc(Nc2ccnc3cc(F)ccc23)cc(OC)c1OC | 5.39 | > 10 | – | – | – | – |
| COc1cc(Nc2c(C#N)cnc3ccc(Cl)cc23)cc(OC)c1OC | 5.89 | > 10 | – | – | – | – |
| COc1cc(Nc2cc(C)nc3ccc(F)cc23)cc(OC)c1OC | 5.64 | > 10 | – | – | – | – |
| COc1cc(Nc2cc(C)nc3cc(C(F)(F)F)ccc23)cc(OC)c1OC | < 5.00 | > 10 | – | – | – | – |
| COc1ccc2nc(C)cc(Nc3cc(OC)c(OC)c(OC)c3)c2c1 | 5.00 | > 10 | – | – | – | – |
| COc1cc(Nc2ncnc3cc(F)c(F)cc23)cc(OC)c1OC | < 5.00 | > 10 | >10 | – | – | – |
| COc1cc(Nc2c(C#N)cnc3ccc(I)cc23)cc(OC)c1OC | 7.10 | > 10 | >80 | – | 0.125 | – |
| COc1cc(Nc2ccnc3cc(F)c(F)cc23)cc(OC)c1OC | 6.00 | 5.5 | – | – | – | – |
| COc1cc(Nc2ccnc3c(C)cccc23)cc(OC)c1OC | < 5.00 | > 10 | – | – | – | – |
| COc1ccc2c(Nc3cc(OC)c(OC)c(OC)c3)cc(C)nc2c1 | < 5.00 | > 10 | – | – | – | – |

| Compound | pEC50 [1, 5] | CC50 [2] [µM] | Ratio EC50 [3] | pEC50 ([1]; huh-7) | EC90 ([1]; Dengue virus, New Guinea C) [µM] | selectivity ratio [4] |
| --- | --- | --- | --- | --- | --- | --- |
| COc1cc(Nc2c(C#N)cnc3cc(I)ccc23)cc(OC)c1OC | 5.33 | > 10 | – | – | – | – |
| COc1cc(Nc2ncnc3cc(Cl)ccc23)cc(OC)c1OC | 5.21 | > 10 | – | – | – | – |
| COc1cc(Nc2ccnc3cc(Br)ccc23)cc(OC)c1OC | 5.08 | > 10 | – | – | – | – |
| COc1cc2nc(C)cc(Nc3cc(OC)c(OC)c(OC)c3)c2cc1OC | 5.00 | > 10 | – | – | – | – |
| COc1cc(Nc2ncnc3ccc(Br)cc23)cc(OC)c1OC | 6.01 | > 10 | – | – | – | – |
| COc1cc(Nc2ncnc3cc(I)ccc23)cc(OC)c1OC | 5.54 | 5.8 | – | – | – | – |
| COc1cc(Nc2c(C#N)cnc3ccccc23)cc(OC)c1OC | < 5.00 | > 10 | – | – | – | – |
| COc1cc(Nc2ncnc3ccc(I)cc23)cc(OC)c1OC | 6.00 | > 10 | – | – | – | – |
| COc1cc(Nc2ncnc3ccc(C#N)cc23)cc(OC)c1OC | 5.43 | > 10 | – | – | – | – |
| COc1cc(Nc2ncnc3cc(C(F)(F)F)ccc23)cc(OC)c1OC | 5.29 | > 10 | – | – | – | – |
| COc1ccc2c(Nc3cc(OC)c(OC)c(OC)c3)ncnc2c1 | 5.57 | > 10 | 2 | – | – | – |
| COc1ccc2ncc(C#N)c(Nc3cc(OC)c(OC)c(OC)c3)c2c1 | 5.51 | > 10 | – | – | – | – |
| COc1cc(Nc2ncnc3cc(F)ccc23)cc(OC)c1OC | < 5.00 | > 10 | – | – | – | – |
| COc1cc(Nc2ncnc3cc(C#N)ccc23)cc(OC)c1OC | 5.85 | > 10 | – | – | – | – |
| COc1cc(Nc2ncnc3ccc(C)cc23)cc(OC)c1OC | < 5.00 | > 10 | – | – | – | – |
| COc1cc(Nc2cc(C)nc3ccccc23)cc(OC)c1OC | 5.10 | > 10 | – | – | – | – |
| COc1cc(Nc2ncnc3cc(Br)ccc23)cc(OC)c1OC | 5.70 | > 10 | – | – | – | – |
| COc1cc(Nc2ccnc3ccc(C(C)(C)C)cc23)cc(OC)c1OC | 5.13 | > 10 | – | – | – | – |
| COc1cc(Nc2ccnc3ccc(C(F)(F)F)cc23)cc(OC)c1OC | 6.23 | > 10 | – | – | – | – |
| COc1cc2ncc(C#N)c(Nc3cc(OC)c(OC)c(OC)c3)c2cc1OC | 5.26 | > 10 | – | – | – | – |
| C#Cc1cccc(Nc2ncnc3cc(OCCOC)c(OCCOC)cc23)c1 [ERLOTINIB] | 5.19 | – | – | – | – | – |
